Marks after values point to notes of the source that are not given here.
What was measured:
Format in all cases: in vivo, Kunming mice
[1] = Pharmacokinetics of GQD constituents in the portal vein of mice after oral GQD; details: both, Kunming, mouse; for AUC(0-t): read-out: AUC0–24 h
Experimental: (§1) Fifty-four Kunming mice were randomly divided into nine groups according to body weight and gender (3 male and three female in each group). Each group was orally administered with water solution (0.2 ml/10 g body weight) of the GQD extract powder at the dosage of 6.1 g/kg body weight. The dosage of GQD extract powder equals to 18 g/kg herbal pieces of GQD, which is equivalent to its clinical dosage. At each designed time point (0.08, 0.25, 0.5, 1, 2, 4, 8, 12, and 24 h) after oral administration, six mice were anesthetized with ether, and blood was collected from the portal vein (about 0.2 ml, aspirated in a 1 ml heparinized syringe) and then the systemic circulation (about 0.2 ml, collected in heparinized tubes after removal of the eyeball) of the mice to prepare plasma samples, and the livers and the colons were removed to prepare respective homogenate. After pretreatment, the concentrations of 19 major constituents of GQD in each sample were measured by the validated LC-MS/MS method (see “2.3”). Then the C-T curves of the constituents in the plasma and the tissue homogenates were respectively drawn and their pharmacokinetic parameters were respectively calculated.
(§2) It should be noted that the pharmacokinetic parameters of a GQD constituent was calculated based on its average concentration in six mice at each time point. The results were expressed as mean ± SD.

[2] = Pharmacokinetics/tissue distribution of GQD constituents in the livers of mice after oral GQD
Experimental: (§3) The liver and the colon homogenates were prepared with 10 times (V: W) the volume of ascorbic acid solution (200 μg/ml). Then the homogenates were pretreated as plasma to obtain the tissue samples for LC-MS/MS analysis. Fifty-four Kunming mice were randomly divided into nine groups according to body weight and gender (3 male and three female in each group). […] Then the C-T curves of the constituents in the plasma and the tissue homogenates were respectively drawn and their pharmacokinetic parameters were respectively calculated. […] It should be noted that the pharmacokinetic parameters of a GQD constituent was calculated based on its average concentration in six mice at each time point. The results were expressed as mean ± SD.

[3] = Pharmacokinetics/tissue distribution of GQD constituents in the colons of mice after oral GQD; details: for half-life / Cmax / MRT / Tmax: both, Kunming
Experimental: as §3

[4] = Pharmacokinetics of GQD constituents in the systemic circulation of mice after oral GQD; details: both, Kunming, mouse; for AUC(0-t): read-out: AUC0–24 h
Experimental: as §1, §2

[5] = portal vein plasma, po, […], portal vein plasma, mice, oral GQD extract […], read-out: Tmax
[6] = portal vein plasma, mice, oral GQD extract 6.1 g/kg
[7] = portal vein plasma, mice, oral GQD extract 6.1 g/kg, read-out: T1/2 (converted)
[8] = both, Kunming, mouse, liver (homogenate), po, […], liver, mice, oral GQD extract […], read-out: T1/2 (converted)
[9] = both, Kunming, mouse, liver (homogenate), liver, mice, oral GQD extract 6.1 g/kg
[10] = both, Kunming, mouse, liver (homogenate), liver, mice, oral GQD extract 6.1 g/kg, read-out: Tmax
[11] = liver, mice, oral GQD extract […]
[12] = mouse, colon (homogenate), po, […], colon, mice, oral GQD extract […], read-out: T1/2 (converted)
[13] = mouse, colon (homogenate), colon, mice, oral GQD extract 6.1 g/kg
[14] = mouse, colon (homogenate), colon, mice, oral GQD extract 6.1 g/kg, read-out: Tmax
[15] = colon, mice, oral GQD extract […]
[16] = systemic circulation plasma, po, […], systemic circulation plasma, mice, oral GQD […], read-out: T1/2 (converted)
[17] = systemic circulation plasma, po, […], systemic circulation plasma, mice, oral GQD […], read-out: Tmax
[18] = systemic circulation plasma, mice, oral GQD 6.1 g/kg
[19] = both, Kunming, mouse, in vivo, po, […]
[20] = both, Kunming, mouse, in vivo, po, […], T1/2
[21] = in vivo, portal vein plasma, mice, oral GQD extract 6.1 g/kg
[22] = both, Kunming, mouse, in vivo, liver, mice, oral GQD extract 6.1 g/kg
[23] = mouse, in vivo, colon, mice, oral GQD extract 6.1 g/kg
[24] = in vivo, systemic circulation plasma, mice, oral GQD 6.1 g/kg

Question: For `O=c1cc(-c2ccccc2)oc2cc(O)c(O)c(O)c12` [Baicalein, baicalein], which Tmax [1, 5] is on record?
Answer: 2 h

Question: What about the Cmax [1, 6] of the same molecule?
Answer: 381 ng/mL

Question: And the MRT [1, 6]?
Answer: 3.8 h

Question: What about the AUC(0-t) [1, 6] of the same molecule?
Answer: 1760 ng·h/mL

Question: And the half-life [1, 7]?
Answer: 1.3 h

Question: What about the half-life [2, 8] of the same molecule?
Answer: 2 to 3 h

Question: What about the Cmax [2, 9] of the same molecule?
Answer: 9020 ng/g

Question: What about the MRT [2, 9] of the same molecule?
Answer: 4.3 h

Question: What about the Tmax [2, 10] of the same molecule?
Answer: 4 h

Question: What about the T1/2 [2, 11] of the same molecule?
Answer: 2.3 h

Question: And the half-life [3, 12]?
Answer: 2 to 3 h

Question: What about the Cmax [3, 13] of the same molecule?
Answer: 1920 ng/g

Question: What about the MRT [3, 13] of the same molecule?
Answer: 5.8 h

Question: And the Tmax [3, 14]?
Answer: 4 h

Question: What about the T1/2 [3, 15] of the same molecule?
Answer: 2.6 h

Question: What about the half-life [4, 16] of the same molecule?
Answer: 6.3 h

Question: What about the Tmax [4, 17] of the same molecule?
Answer: 4 h

Question: What about the Cmax [4, 18] of the same molecule?
Answer: 26.7 ng/mL

Question: What about the MRT [4, 18] of the same molecule?
Answer: 6.8 h

Question: What about the AUC(0-t) [4, 18] of the same molecule?
Answer: 229 ng·h/mL

Question: With `O=C(O)[C@H]1O[C@@H](Oc2cc3oc(-c4ccccc4)cc(=O)c3c(O)c2O)[C@H](O)[C@@H](O)[C@@H]1O` [Baicalin, baicalin] as the molecule, how does the Tmax [1, 5] read?
Answer: 4 h

Question: What about the Cmax [1, 6] of the same molecule?
Answer: 8150 ng/mL

Question: And the MRT [1, 6]?
Answer: 4.5 h

Question: And the AUC(0-t) [1, 6]?
Answer: 46300 ng·h/mL

Question: And the half-life [1, 7]?
Answer: 2 h

Question: What about the half-life [2, 8] of the same molecule?
Answer: 1 to 2 h

Question: And the Cmax [2, 9]?
Answer: 5710 ng/g

Question: What about the MRT [2, 9] of the same molecule?
Answer: 3.7 h

Question: And the Tmax [2, 10]?
Answer: 2 h

Question: What about the T1/2 [2, 11] of the same molecule?
Answer: 1.7 h

Question: And the half-life [3, 12]?
Answer: 15 to 19 h

Question: And the Cmax [3, 13]?
Answer: 3460 ng/g

Question: And the MRT [3, 13]?
Answer: 9.9 h

Question: What about the Tmax [3, 14] of the same molecule?
Answer: 1 h

Question: And the T1/2 [3, 15]?
Answer: 18.6# h

Question: What about the half-life [4, 16] of the same molecule?
Answer: 3.1 h

Question: And the Tmax [4, 17]?
Answer: 4 h

Question: And the Cmax [4, 18]?
Answer: 1450 ng/mL

Question: And the MRT [4, 18]?
Answer: 5.1 h

Question: What about the AUC(0-t) [4, 18] of the same molecule?
Answer: 8670 ng·h/mL

Question: Which Tmax [1, 5] does the source give for `COc1ccc2cc3[n+](cc2c1O)CCc1cc2c(cc1-3)OCO2` [Berberrubine, berberrubine] here?
Answer: 0.25 h

Question: And the Cmax [1, 6]?
Answer: 10.3 ng/mL

Question: And the MRT [1, 6]?
Answer: 4.4 h

Question: What about the AUC(0-t) [1, 6] of the same molecule?
Answer: 67 ng·h/mL

Question: And the half-life [1, 7]?
Answer: 5.1 h

Question: What about the half-life [2, 8] of the same molecule?
Answer: 15 to 19 h

Question: And the Cmax [2, 9]?
Answer: 186 ng/g

Question: What about the MRT [2, 9] of the same molecule?
Answer: 11 h

Question: And the Tmax [2, 10]?
Answer: 4 h

Question: What about the T1/2 [2, 11] of the same molecule?
Answer: 18.2# h

Question: And the half-life [3, 12]?
Answer: 14.3 h

Question: What about the Cmax [3, 13] of the same molecule?
Answer: 293 ng/g

Question: And the MRT [3, 13]?
Answer: 10.1 h

Question: What about the Tmax [3, 14] of the same molecule?
Answer: 4 h

Question: For `c1c2c(cc3c1OCO3)-c1cc3ccc4c(c3c[n+]1CC2)OCO4` [Coptisine, coptisine], which half-life ([1]; in vivo, po, […]) is on record?
Answer: 4.7 h

Question: What about the Tmax ([1]; in vivo, po, […], Tmax) of the same molecule?
Answer: 4 h

Question: And the Kp ([2]; both sexes, Kunming, mouse, in vivo, po, AUC0–24 h liv/AUC0–24 h por)?
Answer: 10.5

Question: What about the Tmax [2, 19] of the same molecule?
Answer: 2 h

Question: And the half-life [2, 20]?
Answer: 3.7 h

Question: What about the Tmax ([3]; mouse, in vivo, po, […]) of the same molecule?
Answer: 4 h

Question: What about the half-life ([3]; mouse, in vivo, po, […], T1/2) of the same molecule?
Answer: 4.3 h

Question: What about the half-life ([4]; in vivo, po, […], T1/2) of the same molecule?
Answer: 10.8 h

Question: And the Tmax ([4]; in vivo, po, […], Tmax)?
Answer: 0.25 h

Question: For `O=c1c(-c2ccc(O)cc2)coc2cc(O)ccc12` [Daidzein, daidzein], which half-life ([1]; in vivo, po, […]) is on record?
Answer: 2.6 h

Question: What about the Tmax ([1]; in vivo, po, […], Tmax) of the same molecule?
Answer: 0.25 to 0.5 h

Question: And the T1/2 [2, 19]?
Answer: 3.6 h

Question: And the Tmax [2, 19]?
Answer: 0.25 h

Question: And the half-life [2, 20]?
Answer: 3 to 4 h

Question: What about the Tmax ([3]; mouse, in vivo, po, […]) of the same molecule?
Answer: 1 h

Question: And the half-life ([4]; in vivo, po, […], T1/2)?
Answer: 1.5 h

Question: And the Tmax ([4]; in vivo, po, […], Tmax)?
Answer: 0.25 to 0.5 h

Question: What does the source list for `O=c1c(-c2ccc(O)cc2)coc2cc(O[C@@H]3O[C@H](CO)[C@@H](O)[C@H](O)[C@H]3O)ccc12` [Daidzin, daidzin]?
Answer: Cmax [1, 21]: 76.9 ng/mL; MRT [1, 21]: 2 h; AUC(0-t) [1, 21]: 151 ng·h/mL; half-life ([1]; in vivo, portal vein plasma, mice, oral GQD extract 6.1 g/kg, read-out: T1/2 (converted)): 1.8 h; Tmax ([1]; in vivo, portal vein plasma, mice, oral GQD extract 6.1 g/kg, read-out: Tmax): 0.25 h; Cmax [2, 22]: 54.1 ng/g; MRT [2, 22]: 3.6 h; half-life ([2]; both, Kunming, mouse, in vivo, liver, mice, oral GQD extract 6.1 g/kg, read-out: T1/2 (converted)): 3.4 h; Tmax ([2]; both, Kunming, mouse, in vivo, liver, mice, oral GQD extract 6.1 g/kg, read-out: Tmax): 0.5 h; Cmax [3, 23]: 114 ng/g; MRT [3, 23]: 9.9 h; half-life ([3]; mouse, in vivo, colon, mice, oral GQD extract 6.1 g/kg, read-out: T1/2 (converted)): 11 h; Tmax ([3]; mouse, in vivo, colon, mice, oral GQD extract 6.1 g/kg, read-out: Tmax): 1 h; Cmax [4, 24]: 49 ng/mL; MRT [4, 24]: 1.8 h; AUC(0-t) [4, 24]: 85.7 ng·h/mL; half-life ([4]; in vivo, systemic circulation plasma, mice, oral GQD 6.1 g/kg, read-out: T1/2 (converted)): 1.8 h; Tmax ([4]; in vivo, systemic circulation plasma, mice, oral GQD 6.1 g/kg, read-out: Tmax): 0.25 h

Question: With `COc1ccc2cc3[n+](cc2c1OC)CCc1cc(O)c(O)cc1-3` [Demethyleneberberine, demethyleneberberine] as the molecule, how does the T1/2 ([2]; mouse, in vivo, po, […]) read?
Answer: 11.1 h

Question: And the T1/2 ([3]; mouse, in vivo, po, […])?
Answer: 2.4 h

From PMC9592910, “Tissue distribution and integrated pharmacokinetic properties of major effective constituents of oral Gegen-Qinlian decoction in mice” (Frontiers in Pharmacology, 2022)
